From patent US10800778B2 (Entasis Therapeutics Limited, priority 2016, dated 2020)

Experiments:
[1] = Stability in pH 7.4 buffer (no enzyme); assay type: physicochemical; settings: read-out: T1/2 pH 7.4 Buffer
Method: (§1) The human intestinal S9 with the absence of PMSF, human liver S9, rat intestinal S9, and rat liver S9 preparations were obtained from Xenotech (Lenexa, Kans.). The 500-μL incubation solution contained 0.8 mg/mL of enzyme (or no enzyme for buffer stability), 10 μM of test compounds in 100 mM of HEPES buffer, pH 7.4. The hydrolysis reactions were conducted in a 1-mL glass insert (Analytical Sales, Pompton Plains, N.J.) in a shake water bath at 37° C. At 0, 2, 5, 10, 15, 30 and 60 min, the reaction was terminated by pipetting 50 μL incubate to a 96 DeepWell plate (Thermo Fisher Scientific, Rochester, N.Y.) containing 100 μL of acetonitrile with 250 ng/mL of Carbutamide (Sigma-Aldrich, St. Louis, Miss.) as the internal standard. The crashed solutions were then vortexed well followed by centrifuge at 4000 rpm for 15 min at 4° C. The extract was transferred to a new 96 DeepWell plate for LC-MS/MS analysis.
(§2) LC-MS/MS analysis was done using an AB Sciex QTrap 6500 mass spectrometer under positive ionization mode, coupled to a Schimadzu Nexera LC system.
(§3) A Waters Atlantis T3 (3 μm, 3.0×50 mm) column was used for separation. The mobile phase consisted 0.1% formic acid in water (A) and 0.1% formic acid in acetonitrile (B) with a flow rate set at 1.2 mL/min. For the prodrug analysis, the Multiple Reaction Monitoring (MRM) specific for each compound was set up so that both prodrug and its hydrolyzed active can be monitored simultaneously.
(§4) Half-lives listed are based on disappearance of starting ester.

[2] = Stability/conversion of esters in rat intestinal S9; assay type: in vitro ADME
Method: as §1, §2, §3, §4

[3] = Stability/conversion of esters in rat liver S9; assay type: in vitro ADME
Method: as §1, §2, §3, §4

[4] = Stability/conversion of esters in human intestinal S9; assay type: in vitro ADME
Method: as §1, §2, §3, §4

[5] = Stability/conversion of esters in human liver S9; assay type: in vitro ADME
Method: as §1, §2, §3, §4

[6] = s9, pH 7.4, read-out: T1/2 Rat Intestinal S9
[7] = s9, pH 7.4, read-out: T1/2 Rat Liver S9
[8] = s9, pH 7.4, read-out: T1/2 Human Intestinal S9
[9] = s9, pH 7.4, read-out: T1/2 Human Liver S9
[10] = intestinal S9, pH 7.4, read-out: T1/2 Rat Intestinal S9
[11] = liver S9, pH 7.4, read-out: T1/2 Rat Liver S9
[12] = intestinal S9 (without PMSF), pH 7.4, read-out: T1/2 Human Intestinal S9
[13] = liver S9, pH 7.4, read-out: T1/2 Human Liver S9

Row | half-life at 10 μM ([1]; HEPES buffer without enzyme) [min] | half-life at 10 μM [2, 10] [min] | half-life at 10 μM [3, 11] [min] | half-life at 10 μM [4, 12] [min] | half-life at 10 μM [5, 13] [min] | SMILES | half-life at 10 μM ([1]; buffer) [min] | half-life at 10 μM [2, 6] [min] | half-life at 10 μM [3, 7] [min] | half-life at 10 μM [4, 8] [min] | half-life at 10 μM [5, 9] [min]
1 | – | – | – | – | – | CC[C@H](C)OC(=O)[C@@H](F)ON1C(=O)N2C[C@H]1C=C(C)[C@H]2C(N)=O [Example 20, (2R)-(S)-sec-butyl 2-(((2S,5R)-2-carbamoyl-3-methyl-7-oxo-1,6-diazabicyclo[3.2.1]oct-3-en-6-yl)oxy)-2-fluoroacetate] | 39 | 54 | 6.1 | 40 | 5.1
2 | – | – | – | – | – | CC[C@@H](C)OC(=O)[C@@H](F)ON1C(=O)N2C[C@H]1C=C(C)[C@H]2C(N)=O [Example 22, (2R)-(R)-sec-butyl 2-(((2S,5R)-2-carbamoyl-3-methyl-7-oxo-1,6-diazabicyclo[3.2.1]oct-3-en-6-yl)oxy)-2-fluoroacetate] | 38 | 56 | 9.2 | 43 | 4.6
3 | – | – | – | – | – | CCOC(=O)[C@@H](F)ON1C(=O)N2C[C@H]1C(C)=C[C@H]2C(N)=O [Example 31, (2R)-ethyl 2-(((2S,5R)-2-carbamoyl-4-methyl-7-oxo-1,6-diazabicyclo[3.2.1]oct-3-en-6-yl)oxy)-2-fluoroacetate] | 44 | 42 | 20 | 35 | 27
4 | – | – | – | – | – | CCOC(=O)[C@H](F)ON1C(=O)N2C[C@H]1C(C)=C[C@H]2C(N)=O [Example 32, (2S)-ethyl 2-(((2S,5R)-2-carbamoyl-4-methyl-7-oxo-1,6-diazabicyclo[3.2.1]oct-3-en-6-yl)oxy)-2-fluoroacetate] | 22 | 18 | 2.4 | 6.9 | 2.4
5 | – | – | – | – | – | CC1=C[C@@H](C(N)=O)N2C[C@@H]1N(O[C@@H](F)C(=O)OC(C)C)C2=O [Example 36, (2S)-isopropyl 2-(((2S,5R)-2-carbamoyl-4-methyl-7-oxo-1,6-diazabicyclo[3.2.1]oct-3-en-6-yl)oxy)-2-fluoroacetate] | 91 | 68 | 3 | 36 | 8.5
6 | 33 | 17 | 0.22 | 2 | 0.39 | CCCCCCCCOC(=O)[C@@H](F)ON1C(=O)N2C[C@H]1C=C(C)[C@H]2C(N)=O [Example 45, octyl (2R)-2-[[(2S,5R)-2-carbamoyl-3-methyl-7-oxo-1,6-diazabicyclo[3.2.1]oct-3-en-6-yl]oxy]-2-fluoro-acetate] | – | – | – | – | –
7 | 12 | 11 | 1.8 | 8.2 | 2.3 | C=CCOC(=O)[C@@H](F)ON1C(=O)N2C[C@H]1C=C(C)[C@H]2C(N)=O [Example 47, allyl (2R)-2-[[(2S,5R)-2-carbamoyl-3-methyl-7-oxo-1,6-diazabicyclo[3.2.1]oct-3-en-6-yl]oxy]-2-fluoro-acetate] | – | – | – | – | –
8 | 62 | 50 | 3 | 42 | 6.1 | CCCOC(=O)[C@@H](F)ON1C(=O)N2C[C@H]1C=C(C)[C@H]2C(N)=O [Example 48, propyl (2R)-2-[[(2S,5R)-2-carbamoyl-3-methyl-7-oxo-1,6-diazabicyclo[3.2.1]oct-3-en-6-yl]oxy]-2-fluoro-acetate] | – | – | – | – | –
9 | 68 | 26 | 1.8 | 32 | 6.9 | CC1=C[C@@H]2CN(C(=O)N2O[C@H](F)C(=O)OCC(C)C)[C@@H]1C(N)=O [Example 49, isobutyl (2R)-2-[[(2S,5R)-2-carbamoyl-3-methyl-7-oxo-1,6-diazabicyclo[3.2.1]oct-3-en-6-yl]oxy]-2-fluoro-acetate] | – | – | – | – | –
